# Source: patent EP4702986A1, “POLYPEPTIDE AND USE THEREOF” (Biocells (Beijing) Biotech Co., Ltd., priority 2023, dated 2024)
# Read-outs that look alike come from different tables or passages of the source. Numbered stars: 1 amine (or outer) side, 2 acyl side, 3 side chain; on linkers, the order of the positions; unused ones are H or OH. Bridge positions count the residues as written; N and C are the ends. Side chains are listed from the residue outwards. Ends that are not written are not given here. Peptide text beside a SMILES is read from it. * marks the point of attachment. C18 diacid = O=C(O)CCCCCCCCCCCCCCCCC(=O)*; γGlu = O=C(O)[C@H](CCC(=O)[*:2])N[*:1]; Stearoyl = CCCCCCCCCCCCCCCCCC(=O)*; Fumaroyl = O=C(O)/C=C/C(=O)*; Suc = O=C(CCC(=O)[*:2])[*:1]; AEEA = NCCOCCOCC(=O)O
# Tests used:
# [1] = Determination of half-lives of polypeptides (plasma, LC-MS); conditions: for half-life: C57 BL/6, mouse, plasma, iv; for AUClast 0-30 min: C57 BL/6 mice, dosage per compound 0.48, 0.96 or 1 mpk
# [2] = molecular target: T1, human ETA receptor (Homo sapiens, UniProt P25101); test: Selectivity of polypeptides on human ETA receptor (IP-One Gq kit, % of positive control ET1); format: cell-based
# T1 construct: expressed in transfected cells; host or cells: 293T-17 cells, transient transfection
# T1 sequence (P25101 21-427): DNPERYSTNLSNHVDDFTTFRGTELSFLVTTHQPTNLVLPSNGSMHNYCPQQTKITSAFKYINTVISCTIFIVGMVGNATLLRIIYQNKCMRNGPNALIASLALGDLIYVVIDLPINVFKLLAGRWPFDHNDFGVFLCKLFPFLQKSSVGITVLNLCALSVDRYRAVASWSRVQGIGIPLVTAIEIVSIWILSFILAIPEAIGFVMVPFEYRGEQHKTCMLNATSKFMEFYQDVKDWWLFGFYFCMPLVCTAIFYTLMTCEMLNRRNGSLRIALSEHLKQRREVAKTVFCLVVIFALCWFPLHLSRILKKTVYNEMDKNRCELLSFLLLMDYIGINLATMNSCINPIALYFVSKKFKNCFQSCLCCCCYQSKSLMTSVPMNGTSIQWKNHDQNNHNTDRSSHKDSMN
# Description: 293T-17 cells were seeded at a density of 650,000 cells per well in a 6-well plate and cultured overnight in an incubator at 37°C and 5% CO2. Afterward, the cells were transfected with an expression vector, PCDNA3.1-hETA which contained a human ETA receptor gene, at a plasmid concentration of 2.5 µg per well. The cells were further cultured for 48 hours, and green fluorescence expression was observed under a fluorescence microscope. The cells were then digested with trypsin and counted. The activity of compounds on the human ETA receptor was determined with the IP-One Gq kit from Cisbio Bioassays. The cells were suspended in Stim Buffer provided in the kit and the cell suspension was added to a 96-well detection plate at 7 µL cell suspension (containing 30,000 cells) per well. The polypeptides to be screened for activity (prepared according to the Preparation Example of the invention) and polypeptide human endothelin ET1 as positive control were dissolved in Stim B to be at a concentration of 2×, and 7 µL was added to the test cells, while 7 µL of PBS solution was added to the cells in the negative control wells. Human endothelin ET1 (ET1: […] (C1-C15,C3-C11)) set forth in SEQ ID No. 85 was used as the positive control polypeptide. The plate was sealed and incubated at 37°C for 1 h in a cell culture incubator. Detection wells, positive control wells, and PBS control wells were each added with 3 µL of IP1 d2 working solution and 3 µL of IP1 Tb cryptotate Antibody working solution. The plate was sealed and incubated in the dark at room temperature (25°C±5°C) for 1 h. The plate seal was removed, and the […] at 665 nm and 620 nm was measured with an ID5 microplate reader. The ratio of the acceptor emission signal to the donor emission signal, i.e., the value of (signal at 665 nm/signal at 620 nm)×10^4, was calculated for each well. With F3 representing the average value of values of signal at 665 nm/signal at 620 nm determined for the test sample at a specific concentration, F5 representing the average value of values of signal at 665 nm/signal at 620 nm determined for the positive control human endothelin ET1 at the same concentration, and T3 representing the average value of values of signal at 665 nm/signal at 620 nm determined for the PBS negative control, the percentage of activity of the test polypeptide sample relative to the positive control sample ET1 = (F3-T3)×100/(F5-T3) (see Table 6). hETA sequence (NCBI accession number L06622.1).
# [3] = molecular target: T2, human ETB receptor (Homo sapiens, UniProt P24530); test: Screening of polypeptides for activity on human ETB receptor (IP-One Gq kit, % of positive control IRL1620); format: cell-based
# T2 construct: expressed in transfected cells; host or cells: 293T-17 cells, transient transfection
# T2 sequence (P24530 27-442): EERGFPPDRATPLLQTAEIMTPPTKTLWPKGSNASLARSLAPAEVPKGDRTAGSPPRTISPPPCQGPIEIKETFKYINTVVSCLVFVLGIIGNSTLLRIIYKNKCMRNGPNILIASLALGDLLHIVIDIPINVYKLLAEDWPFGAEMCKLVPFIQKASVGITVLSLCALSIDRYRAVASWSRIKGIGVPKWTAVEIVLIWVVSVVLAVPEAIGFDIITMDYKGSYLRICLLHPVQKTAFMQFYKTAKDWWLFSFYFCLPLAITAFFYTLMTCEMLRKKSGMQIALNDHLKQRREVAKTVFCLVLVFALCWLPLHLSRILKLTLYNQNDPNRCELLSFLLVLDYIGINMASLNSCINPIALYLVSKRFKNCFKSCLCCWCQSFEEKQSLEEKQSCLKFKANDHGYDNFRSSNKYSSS
# Description: 293T-17 cells were seeded at a density of 650,000 cells per well in a 6-well plate and cultured overnight in an incubator at 37°C and 5% CO2. Afterward, the cells were transfected with an expression vector, PCDNA3.1-hETB which contained a human ETB receptor gene, at a plasmid concentration of 2.5 µg per well. The cells were further cultured for 48 hours, and green fluorescence expression was observed under a fluorescence microscope. The cells were then digested with trypsin and counted. The activity of compounds on the human ETB receptor was determined with the IP-One Gq kit from Cisbio Bioassays. The cells were suspended in Stim Buffer provided in the kit and the cell suspension was added to a 96-well detection plate at 7 µL cell suspension (containing 30,000 cells) per well. The polypeptides to be screened for activity (prepared according to the Preparation Example of the invention) and polypeptide IRL1620 as positive control were dissolved in Stim B to be at a concentration of 2×, and 7 µL was added to the test cells, while 7 µL of PBS solution was added to the cells in the negative control wells. IRL1620 was used as the positive control polypeptide. The plate was sealed and incubated at 37°C for 1 hour in a cell culture incubator. Test wells, positive control wells, and PBS control wells were each added with 3 µL of IP1 d2 working solution and 3 µL of IP1 Tb cryptotate Antibody working solution. The plate was then sealed and incubated in the dark at room temperature (25°C±5°C) for 1 hour. The plate seal was removed, and the […] at 665 nm and 620 nm was measured with an ID5 microplate reader. The ratio of the acceptor emission signal to the donor emission signal, i.e., the value of (signal at 665 nm/signal at 620 nm)×10^4, was calculated for each well. With F1 representing the average value of values of signal at 665 nm/signal at 620 nm determined for the test sample at a specific concentration, F2 representing the average value of values of signal at 665 nm/signal at 620 nm determined for the positive control IRL1620 at the same concentration, and T1 representing the average value of values of signal at 665 nm/signal at 620 nm determined for the PBS negative control, the percentage of activity of the test polypeptide sample relative to the positive control sample IRL1620 is equal to (F1-T1)×100/(F2-T1). hETB sequence (NCBI accession number NM_000115.5).
# [4] = read-out: hETAR agonist activity, percentage of activity relative to ET1
Compound,"hETAR agonist activity, percentage of activity relative to ET1 [2] [%@100µM]","hETAR agonist activity, percentage of activity relative to ET1 ([2]; @10µM) [%@10µM]","hETBR agonist activity, percentage of activity relative to IRL1620 [3] [%@100nM]","hETBR agonist activity, percentage of activity relative to IRL1620 ([3]; @10nM) [%@10nM]",other results
CC[C@H](C)[C@H](NC(=O)[C@H](CC(=O)O)NC(=O)[C@H](CC(C)C)NC(=O)[C@H](Cc1c[nH]cn1)NC(=O)[C@H](C)NC(=O)[C@H](Cc1ccccc1)NC(=O)[C@H](Cc1ccc(O)cc1)NC(=O)[C@@H]1CSSC[C@H](NC(=O)[C@H](CCC(=O)O)NC(=O)[C@H](CC(=O)O)NC(=O)CCC(=O)O)C(=O)N[C@@H](CCC(=O)O)C(=O)N[C@@H](CCC(=O)O)C(=O)N1)C(=O)N[C@H](C(=O)N[C@@H](Cc1c[nH]c2ccccc12)C(=O)O)[C@@H](C)CC [BX-56] (Suc-DECEECYFAHLDIIW-OH; disulfide 3-6),,,,,half-life [1]: 8.9 min; AUClast 0-30 min ([1]; i.v.): 1376 ng·h/mL
CCCCCCCCCCCCCCCCCC(=O)NCCOCCOCC(=O)NCCOCCOCC(=O)N[C@@H](CCC(=O)NCCCC[C@H](NC(=O)[C@H](Cc1c[nH]cn1)NC(=O)[C@H](C)NC(=O)[C@H](Cc1ccccc1)NC(=O)[C@H](Cc1ccc(O)cc1)NC(=O)[C@@H](NC(=O)[C@H](C)NC(=O)[C@H](CCC(=O)O)NC(=O)[C@H](CCC(=O)O)NC(=O)[C@H](CC(=O)O)NC(=O)/C=C/C(=O)O)C(C)C)C(=O)N[C@@H](CC(=O)O)C(=O)N[C@H](C(=O)N[C@H](C(=O)N[C@@H](Cc1c[nH]c2ccccc12)C(=O)O)[C@@H](C)CC)[C@@H](C)CC)C(=O)O [BX-69] (Fumaroyl-DEEAVYFAHK([γGlu-AEEA-AEEA-Stearoyl])DIIW-OH),,,,,"activation at 10 µM [2, 4]: 13.1%; activation at 100 µM [2, 4]: 11.5%; half-life [1]: 30 min; AUClast 0-30 min ([1]; i.v.): 1611 ng·h/mL; T1/2 ([1]; Table 1, mice, i.v.): T1/2=30min;"
CC[C@H](C)[C@H](NC(=O)[C@H](CC(=O)O)NC(=O)[C@H](CCCCN)NC(=O)[C@H](Cc1c[nH]cn1)NC(=O)[C@H](C)NC(=O)[C@H](Cc1ccccc1)NC(=O)[C@H](Cc1ccc(O)cc1)NC(=O)[C@@H](NC(=O)[C@H](C)NC(=O)[C@H](CCC(=O)O)NC(=O)[C@H](CCC(=O)O)NC(=O)[C@H](CC(=O)O)NC(=O)/C=C/C(=O)O)C(C)C)C(=O)N[C@H](C(=O)N[C@@H](Cc1c[nH]c2ccccc12)C(=O)O)[C@@H](C)CC [F-BX-5] (Fumaroyl-DEEAVYFAHKDIIW-OH),,,,,half-life [1]: < 3 min; AUClast 0-30 min ([1]; i.v.): 127 ng·h/mL
Fum-D cyclo(EEAK)YFAHK(-γE-AEEA-AEEA-ODDA)DVIW [BX-100],9.52,-39.09,15.03,18.79,
Fum-D cyclo(EEAK)YFAHLD(2-Abu)IW [BX-64],6.41,-13.52,132.16,79.92,
Fum-DEE cyclo(EVYFK)HKD(2-Abu)IW [BX-62],,,129.39,99.31,"hETAR agonist activity, percentage of activity relative to ET1 ([2]; @10nM): -17.37%@10nM; hETAR agonist activity, percentage of activity relative to ET1 ([2]; @100nM): -19.09%@100nM"
Fum-DEEK(-γE-AEEA-AEEA-ODDA)VYFAHLDIIW (Fum-DEEK with lipidated linker N-terminal) [BX-66],-0.94,13.13,60.51,7.67,
Suc-D cyclo(EEAK)YFAHK(-γE-AEEA-AEEA-ODDA)DIIW [BX-77],-6.32,-29.53,4.69,-16.59,
Suc-D cyclo(EEAK)YFAHK(-γE-AEEA-AEEA-ODDA)DVIW [BX-79],-12.17,-46.08,19.85,2.13,
Suc-D cyclo(EEAK)YFAHLD(2-Abu)IW [BX-63],4.43,-15.24,122.93,90.08,
Suc-DEEAVYFAHK(-γE-AEEA-AEEA-ODDA)DVIW (Suc-DEEAVYFAHK([γGlu-AEEA-AEEA-C18 diacid])DVIW) [BX-78],-23.02,-6.06,23.41,-14.2,
